Where two headings read alike, the source gives them in different places.
Legend:
cholesterol oxidase [1] = experiment: Activation of cholesterol oxidase by surface-active compounds; type: biochemical; details: for activation of cholesterol oxidase: result in words; for appropriate concentration range of surface-active compound for activation: too small an amount gives no activation, too large denatures the enzyme
Source text: In addition, other surface-active substances with lipophilic and hydrophilic properties which contain at least one hydroxyl group, can also be used. Examples of such compounds include ethanol, butyl-diglycol and hexyleneglycol.
The appropriate concentration range, as well as the optimum concentration, can be experimentally determined for all appropriate surface-active agents.

cholesterol oxidase [2] = experiment: Determination of cholesterol in serum with detergent-free cholesterol oxidase, extinction at 240 nm; type: biochemical; details: 0.4% in 0.5 M potassium phosphate buffer pH 7.5, 0.1 U enzyme; without surface-active agent 15 minutes were required
Description: 0.05 ml. of serum were added to 10 ml. 0.5 M potassium phosphate buffer of pH 7.5 which contained 0.4% hydroxypolyethoxydodecane. The extinction (E1) was read off at 240 nm in a suitable spectrophotometer and the reaction started with 0.02 ml. (0.1 U) of storage-stable cholesterol oxidase, freed from traces of detergent, in 1 M aqueous ammonium sulfate solution. After 3 minutes, the extinction (E2) was read off. The concentration of the cholestenone formed and thus of the cholesterol was given by the difference between the first and second readings, having regard to the molar extinction coefficients for […] at 240 nm. The measurement of a typical sample gave 62 mg.% free cholesterol and 167 mg.% total cholesterol (after saponification).
A comparative determination but without the addition of the surface-active agent required a reaction time of 15 minutes.

cholesterol oxidase [3] = details: 1 M ammonium sulfate, 33° C.
Description: The experiments were carried out with an octyl-phenol-ethylene oxide adduct.

Molecule | activation of cholesterol oxidase (cholesterol oxidase [1]) | appropriate concentration range of surface-active compound for activation (cholesterol oxidase [1]) [wt.%] | also measured
OC1CCCCC1 [cyclohexanol] | no activation | – | –
OCCO [ethylene glycol] | no activation | – | –
OCC(O)CO [glycerol] | no activation | – | –
CO [methanol] | no activation | – | –
C[C@H](CCC(=O)O)[C@H]1CC[C@H]2[C@@H]3CC[C@@H]4C[C@H](O)CC[C@]4(C)[C@H]3C[C@H](O)[C@]12C [sodium desoxycholate] | – | 0.03 to 0.05 | –
desoxycholates | Similarly good results | – | –
hydroxypolyethoxydodecane | – | 0.15 to 0.6 | reaction time of the cholesterol determination (cholesterol oxidase [2]): 3 min
octyl-phenol-ethylene oxide adduct | – | 0.03 to 0.1 | Activity of cholesterol oxidase in %, referred to freshly prepared enzyme (cholesterol oxidase [3]; detergent 0.02%, storage period 10 days): 60%; Activity of cholesterol oxidase in %, referred to freshly prepared enzyme (cholesterol oxidase [3]; detergent 0.02%, storage period 22 days): 40%; Activity of cholesterol oxidase in %, referred to freshly prepared enzyme (cholesterol oxidase [3]; detergent 0.05%, storage period 10 days): 7%; Activity of cholesterol oxidase in %, referred to freshly prepared enzyme (cholesterol oxidase [3]; detergent 0.05%, storage period 22 days): 1%; Activity of cholesterol oxidase in %, referred to freshly prepared enzyme (cholesterol oxidase [3]; detergent 0.6%, storage period 10 days): 3%; Activity of cholesterol oxidase in %, referred to freshly prepared enzyme (cholesterol oxidase [3]; detergent 0.6%, storage period 22 days): 1%; Activity of cholesterol oxidase in %, referred to freshly prepared enzyme (cholesterol oxidase [3]; detergent amount not printed (column between 0.05% and 0.6%), storage period 10 days): 7%; Activity of cholesterol oxidase in %, referred to freshly prepared enzyme (cholesterol oxidase [3]; detergent amount not printed (column between 0.05% and 0.6%), storage period 22 days): 1%
polyoxyethylene derivatives of sorbitol anhydrides | – | 0.15 to 0.6 | –
